# Like-named read-outs stand apart in the source and are kept apart here.
# Tests used:
# [1] = rat brain microdialysis, HPLC/UV; cited from earlier work
# [2] = biological target: T1, paraoxon-hAChE (Homo sapiens, UniProt P22303); assay type: biochemical
# [3] = biological target: T1, paraoxon-hAChE; conditions: cited from earlier work
# T1 sequence (P22303 32-574): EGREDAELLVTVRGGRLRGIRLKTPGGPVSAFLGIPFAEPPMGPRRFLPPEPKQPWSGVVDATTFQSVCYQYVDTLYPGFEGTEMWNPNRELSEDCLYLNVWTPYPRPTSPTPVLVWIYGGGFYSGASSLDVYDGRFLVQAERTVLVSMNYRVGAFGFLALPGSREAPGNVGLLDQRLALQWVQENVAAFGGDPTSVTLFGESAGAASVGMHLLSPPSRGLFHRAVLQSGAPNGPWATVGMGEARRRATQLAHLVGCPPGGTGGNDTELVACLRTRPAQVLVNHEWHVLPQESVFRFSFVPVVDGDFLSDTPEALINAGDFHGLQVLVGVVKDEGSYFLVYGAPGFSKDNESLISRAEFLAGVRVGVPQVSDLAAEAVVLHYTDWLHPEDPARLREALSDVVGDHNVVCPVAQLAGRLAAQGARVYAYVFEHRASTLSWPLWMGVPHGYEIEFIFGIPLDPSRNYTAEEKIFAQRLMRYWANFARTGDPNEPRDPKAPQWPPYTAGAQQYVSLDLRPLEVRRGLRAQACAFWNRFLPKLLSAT
Compound,kr [2],kr2 [2],also measured
C[n+]1ccccc1/C=N/O [Compound 2-PAM],,,BBB penetration [1]: 10%
"ON=Cc1nccc(CCCCCNc2c3c(nc4ccccc24)CCCC3)c1O [Compound 10, 2-[(hydroxyimino)methyl]-4-{5-[(1,2,3,4-tetrahydroacridin-9-yl)amino]pentyl}pyridin-3-ol]",,,reactivation of paraoxon inhibited hAChE [2]: no reactivation
"O/N=C/c1nc(CCCCCNc2c3c(nc4ccccc24)CCCC3)ccc1O [Compound 11, 2-[(1E)-(hydroxyimino)methyl]-6-{5-[(1,2,3,4-tetrahydroacridin-9-yl)amino]pentyl}pyridin-3-ol]",0.0228 ± 0.0006 min⁻¹,20.9 mM⁻¹ min⁻¹,
"ON=Cc1nc(CCCCNc2c3c(nc4ccccc24)CCCC3)ccc1O [Compound 12, 2-[1-(hydroxyimino)methyl]-6-{4-[(1,2,3,4-tetrahydroacridin-9-yl)amino]butyl}pyridin-3-ol]",0.111 ± 0.002 min⁻¹,31 mM⁻¹ min⁻¹,
"ON=Cc1nc(CCCCNc2c3c(nc4ccc(Cl)cc24)CCCC3)ccc1O [Compound 15, 6-(4-((7-Chloro-1,2,3,4-tetrahydroacridin-9-yl)amino)butyl)-3-hydroxy-picolin-aldehyde oxime]",0.11 ± 0.01 min⁻¹,19 mM⁻¹ min⁻¹,
ON=Cc1cc[n+](CCC[n+]2ccc(/C=N/O)cc2)cc1 [Trimedoxime],,,kr [3]: 0.34 ± 0.02 ^a min^−1; kr2 [3]: 17 ^a mM^−1min^−1
